Laboratory results as given in article PMC10977697 (PLOS ONE, 2024).
Where no end group is shown, it is not given here.

Legend:
Notch2NRR = assay: Spot phage ELISA, Notch2NRR; format: binding, human; settings: for S/N: spot phage ELISA on Notch2NRR, signal-to-noise ratio of phage-displayed DCP clone; for ELISA: spot phage ELISA signal of phage-displayed DCP clone on Notch2NRR
PCSK9ΔCRD (PCSK9dCRD) = format: binding, human; settings: for S/N: ratio of signal for target protein over BSA background; for ELISA: spot phage ELISA signal, DCP displayed on M13 p8
CD28-Fc = assay: Spot phage ELISA, CD28-Fc; format: binding; settings: for ELISA: spot phage ELISA signal of phage-displayed DCP clone on CD28-Fc; for S/N: spot phage ELISA signal-to-noise on CD28-Fc
Fz7CRD-Fc = format: binding; settings: for S/N: ratio of signal for target protein over BSA background; for ELISA: spot phage ELISA signal, DCP displayed on M13 p8

AFDCLGQCGRCDFHKLQCIWSNRNYPYCNSSCTR (disulfide (positions not given here)) [AVR9 3]
S/N (Notch2NRR): 47.3 | ELISA (Notch2NRR): 3.31

AFDCLGQCGRCDFHKLQCVFRSWQHYMYCNSSCTR (also: bicyclic or more (positions not given here)) [PCSK9dCRD AVR9 39]
S/N (PCSK9ΔCRD (PCSK9dCRD)): 9.1 | ELISA (PCSK9ΔCRD (PCSK9dCRD)): 2.46

AFDCLGQCGRCDFHKLQCVGKFRSFQDYQYCNSSCTR (also: bicyclic or more (positions not given here)) [PCSK9dCRD AVR9 18]
S/N (PCSK9ΔCRD (PCSK9dCRD)): 28.6 | ELISA (PCSK9ΔCRD (PCSK9dCRD)): 2.52

AFDCLGQCGRCDFHKLQCVHSNRNSFYCNSSCTR (disulfide (positions not given here)) [AVR9 7]
S/N (Notch2NRR): 43.6 | ELISA (Notch2NRR): 3.23

AFDCLGQCGRCDFHKLQCVNIEYYRDWDHYQYCNSSCTR (also: bicyclic or more (positions not given here)) [PCSK9dCRD AVR9 82]
S/N (PCSK9ΔCRD (PCSK9dCRD)): 27.6 | ELISA (PCSK9ΔCRD (PCSK9dCRD)): 2.13

AFDCLGQCGRCDFHKLQCVPYSWTYKQYCNSSCTR (disulfide (positions not given here)) [AVR9 9]
S/N (Notch2NRR): 35.7 | ELISA (Notch2NRR): 2.57

AFDCLGQCGRCDFHKLQCVSSNRNTPYCNSSCTR (disulfide (positions not given here)) [AVR9 5]
S/N (Notch2NRR): 45.8 | ELISA (Notch2NRR): 3.31

AFDCLGQCGRCDFHKLQCVVGWASMRNYCNSSCTR (disulfide (positions not given here)) [AVR9 8]
S/N (Notch2NRR): 42.0 | ELISA (Notch2NRR): 3.14

AFDCLGQCGRCDFHKLQCVWGNRNSSYCNSSCTR (disulfide (positions not given here)) [AVR9 6]
S/N (Notch2NRR): 35.2 | ELISA (Notch2NRR): 3.28

AFDCLGQCGRCDFHKLQCVWQTWQHYQYCNSSCTR (also: bicyclic or more (positions not given here)) [PCSK9dCRD AVR9 69]
S/N (PCSK9ΔCRD (PCSK9dCRD)): 23.5 | ELISA (PCSK9ΔCRD (PCSK9dCRD)): 2.51

AFDCLGQCGRCDFHKLQCVWQTWSAYLYCNSSCTR (also: bicyclic or more (positions not given here)) [PCSK9dCRD AVR9 80]
S/N (PCSK9ΔCRD (PCSK9dCRD)): 2.9 | ELISA (PCSK9ΔCRD (PCSK9dCRD)): 2.10

AFDCLGQCGRCDFHKLQCVWSNRHSPYCNSSCTR (disulfide (positions not given here)) [AVR9 4]
S/N (Notch2NRR): 39.3 | ELISA (Notch2NRR): 3.31

AFDCLGQCGRCDFHKLQCVWSNRNSLYCNSSCTR (disulfide (positions not given here)) [AVR9 1]
S/N (Notch2NRR): 2.0 | ELISA (Notch2NRR): 3.42

AFDCLGQCGRCDFHKLQCVWSNRNSPYCNSSCTR (disulfide (positions not given here)) [AVR9 2]
S/N (Notch2NRR): 44.7 | ELISA (Notch2NRR): 3.32

AFDCLGQCGRCDFHKLQCVWTSWGDYIKYGAYCNSSCTR (also: bicyclic or more (positions not given here)) [PCSK9dCRD AVR9 94]
S/N (PCSK9ΔCRD (PCSK9dCRD)): 10.9 | ELISA (PCSK9ΔCRD (PCSK9dCRD)): 2.09

AFDCLGQCGRCDFHKLQCVYESYAHYQYCNSSCTR (also: bicyclic or more (positions not given here)) [PCSK9dCRD AVR9 54]
S/N (PCSK9ΔCRD (PCSK9dCRD)): 23.7 | ELISA (PCSK9ΔCRD (PCSK9dCRD)): 1.59

AFDCLGQCGRCDFHKLQCVYKDWGHYLYCNSSCTR (also: bicyclic or more (positions not given here)) [PCSK9dCRD AVR9 34]
S/N (PCSK9ΔCRD (PCSK9dCRD)): 24.0 | ELISA (PCSK9ΔCRD (PCSK9dCRD)): 1.80

AFDCLGQCGRCDFHKLQCVYKTWQDYQYCNSSCTR (also: bicyclic or more (positions not given here)) [PCSK9dCRD AVR9 53]
S/N (PCSK9ΔCRD (PCSK9dCRD)): 36.1 | ELISA (PCSK9ΔCRD (PCSK9dCRD)): 2.49

AFDCLGQCGRCDFHKLQCVYQDWAHYVYCNSSCTR (also: bicyclic or more (positions not given here)) [PCSK9dCRD AVR9 44]
S/N (PCSK9ΔCRD (PCSK9dCRD)): 27.7 | ELISA (PCSK9ΔCRD (PCSK9dCRD)): 2.19

AFDCLGQCGRCDFHKLQCVYQSWDHYQYCNSSCTR (also: bicyclic or more (positions not given here)) [PCSK9dCRD AVR9 14]
S/N (PCSK9ΔCRD (PCSK9dCRD)): 30.5 | ELISA (PCSK9ΔCRD (PCSK9dCRD)): 2.41

AFDCLGQCGRCDFHKLQCVYRSWAHFQYCNSSCTR (also: bicyclic or more (positions not given here)) [PCSK9dCRD AVR9 11]
S/N (PCSK9ΔCRD (PCSK9dCRD)): 18.5 | ELISA (PCSK9ΔCRD (PCSK9dCRD)): 2.52

AFDCLGQCGRCDFHKLQCVYSSWAHYQYCNSSCTR (also: bicyclic or more (positions not given here)) [PCSK9dCRD AVR9 57]
S/N (PCSK9ΔCRD (PCSK9dCRD)): 33.9 | ELISA (PCSK9ΔCRD (PCSK9dCRD)): 2.57

AFDCLGQCGRCDFHKLQCVYTSWESYQYCNSSCTR (also: bicyclic or more (positions not given here)) [PCSK9dCRD AVR9 16]
S/N (PCSK9ΔCRD (PCSK9dCRD)): 19.6 | ELISA (PCSK9ΔCRD (PCSK9dCRD)): 1.80

AFDCLGQCGRCDFHKLQCVYTSWQHYQYCNSSCTR (also: bicyclic or more (positions not given here)) [PCSK9dCRD AVR9 58]
S/N (PCSK9ΔCRD (PCSK9dCRD)): 35.3 | ELISA (PCSK9ΔCRD (PCSK9dCRD)): 2.67

GCDEYWYECKQDSDCLAGCVCLIWGHCG (disulfide (positions not given here)) [CD28-Fc EET I-II 7]
ELISA (CD28-Fc): 1.32 | S/N (CD28-Fc): 20.3

GCFENWATCKQDSDCLAGCVCKIWKRCG (disulfide (positions not given here)) [CD28-Fc EET I-II 5]
ELISA (CD28-Fc): 1.34 | S/N (CD28-Fc): 19.6

GCFWKRVHLCKQDSDCLAGCVCGWEASCG (disulfide (positions not given here)) [CD28-Fc EET I-II 15]
ELISA (CD28-Fc): 1.64 | S/N (CD28-Fc): 31.6

GCHYNWDQCKQDSDCLAGCVCLIWYRCD (disulfide (positions not given here)) [CD28-Fc EET I-II 12]
ELISA (CD28-Fc): 1.06 | S/N (CD28-Fc): 20.1

GCIWGWAACKQDSDCLAGCVCQIWGRCG (disulfide (positions not given here)) [CD28-Fc EET I-II 3]
ELISA (CD28-Fc): 1.58 | S/N (CD28-Fc): 10.7

GCKLMRQRCKQDSDCLAGCVCTQQWWCG (disulfide (positions not given here)) [N2N-EET-94]
S/N (Notch2NRR): 36.3 | ELISA (Notch2NRR): 3.52

GCMEHWEYCKQDSDCLAGCVCVIWGRCG (disulfide (positions not given here)) [CD28-Fc EET I-II 13]
ELISA (CD28-Fc): 1.52 | S/N (CD28-Fc): 27.2

GCMMYWDECKQDSDCLAGCVCLIWNRCG (disulfide (positions not given here)) [CD28-Fc EET I-II 4]
ELISA (CD28-Fc): 1.85 | S/N (CD28-Fc): 34.2

GCMWDWDACKQDSDCLAGCVCSIWGRCG (disulfide (positions not given here)) [CD28-Fc EET I-II 2]
ELISA (CD28-Fc): 1.29 | S/N (CD28-Fc): 10.9

GCMYHWEACKQDSDCLAGCICHIWIPCG (disulfide (positions not given here)) [CD28-Fc EET I-II 8]
ELISA (CD28-Fc): 1.07 | S/N (CD28-Fc): 16.4

GCNGQRRPWGRWCKQDSDCLAGCVCGPNGFCG (disulfide (positions not given here)) [N2N-EET-33-P1]
S/N (Notch2NRR): 11.9 | ELISA (Notch2NRR): 2.39

GCTLMRTRCKQDSDCLAGCVCEHIYWCG (disulfide (positions not given here)) [N2N-EET-n19]
S/N (Notch2NRR): 12.8 | ELISA (Notch2NRR): 3.16

GCTQDWKTCKQDSDCLAGCVCVIWGRCG (disulfide (positions not given here)) [CD28-Fc EET I-II 6]
ELISA (CD28-Fc): 1.44 | S/N (CD28-Fc): 21.2

GCVWNWVECKQDSDCLAGCVCYIWGRCG (disulfide (positions not given here)) [CD28-Fc EET I-II 1]
ELISA (CD28-Fc): 1.59 | S/N (CD28-Fc): 15.4

GCWEKRKMCKQDSDCLAGCVCGWEISCG (disulfide (positions not given here)) [CD28-Fc EET I-II 14]
ELISA (CD28-Fc): 1.35 | S/N (CD28-Fc): 22.9

GCYLKRRHCKQDSDCLAGCVCGWEHTCG (disulfide (positions not given here)) [CD28-Fc EET I-II 9]
ELISA (CD28-Fc): 1.52 | S/N (CD28-Fc): 23.4

GPTQSHYGQCGGAGYWGRWICSGTTCQPLPQSKSQCLPGAS (disulfide (positions not given here)) [CBD 1]
S/N (Notch2NRR): 38.2 | ELISA (Notch2NRR): 3.79

GPTQSHYGQCGGEGYWGRWICSGTTCQPYNTHFSQCLPGAS (disulfide (positions not given here)) [CBD 2]
S/N (Notch2NRR): 28.5 | ELISA (Notch2NRR): 3.05

GPTQSHYGQCGGFGYWGMRHCSGTTCQWQHLPSQ CLPGAS (disulfide) [CBD 3]
S/N (Notch2NRR): 36.6 | ELISA (Notch2NRR): 3.00

GPTQSHYGQCGGQGYWGMRHCSGTTCQWGAKGPSQCLPGAS (disulfide (positions not given here)) [CBD 4]
S/N (Notch2NRR): 33.1 | ELISA (Notch2NRR): 3.68

GPTQSHYGQCGGTGYWGMRNCSGTTCQRFAPQNSQCLPGAS (disulfide (positions not given here)) [CBD 5]
S/N (Notch2NRR): 47.2 | ELISA (Notch2NRR): 3.59

GPTQSVGGNCGGIGYSGPTVCASGTTCQVLSPNFSICLPGAS (also: bicyclic or more (positions not given here)) [PCSK9dCRD CBD 49]
S/N (PCSK9ΔCRD (PCSK9dCRD)): 37.1 | ELISA (PCSK9ΔCRD (PCSK9dCRD)): 2.38

GPTQSVGGVCGGIGYSGPTVCASGTTCQVLSPKTSICLPGAS (also: bicyclic or more (positions not given here)) [PCSK9dCRD CBD 40]
S/N (PCSK9ΔCRD (PCSK9dCRD)): 27.5 | ELISA (PCSK9ΔCRD (PCSK9dCRD)): 2.39

GPTQSVYGYCGGIGYSGPTVCASGTTCQVLFPGHSFCLPGAS (also: bicyclic or more (positions not given here)) [Fz7CRD-Fc CBD 23]
S/N (Fz7CRD-Fc): 20.9 | ELISA (Fz7CRD-Fc): 2.78

GPTQSWFGQCGGIGYSGPTVCASGTTCQVLVPDMSFCLPGAS (also: bicyclic or more (positions not given here)) [Fz7CRD-Fc CBD 87]
S/N (Fz7CRD-Fc): 32.0 | ELISA (Fz7CRD-Fc): 2.66
